The subject of one test is qrr4. The test is classed as cell-based. The settings on record: for RLU, average per biological replicate (Totals): Rep 1-3.
Test [1] addresses T1, CqsS (Vibrio cholerae serotype O1, UniProt Q9KM66).
T1 construct: endogenous in cells; host or cells: V. cholerae WN1102 (ΔcqsA ΔluxQ/pBB1), derived from C6706str2
Nature of the test: cell-based. Conditions: for RLU: Strain WN1102; for Light production: strain WN1102; for EC50: light production, reporter strain WN1102, 4 h at 30 °C.

Test [2] deals with CqsS. It is filed as cell-based. Conditions: for CqsS Dimers / Relative dimers, Final experimental replicates / Relative dimers (CqsS, normalized to WT Ave): LuxS-CqsA-, AI-2 1 μM, CAI-1 5 μM; for CqsS Dimers / Relative dimers (CqsS, normalized to WT Ave): single replicates.
Test [3] deals with QS-controlled luxCDABE operon. It is filed as cell-based. The settings on record: for RLU: Strain AH371.
The subject of the next test is hapA. It is filed as cell-based.
The subject of test [4] is QS-controlled luxCDABE operon. It is filed as cell-based. Conditions: for RLU: PluxPQ-CqsS::3XFLAG LuxS-CqsA-.
[5] abbreviates: LuxS-CqsA- strain + autoinducer.

The results in this text go back to paper PMC5467912, “Asymmetric regulation of quorum-sensing receptors drives autoinducer-specific gene expression programs in Vibrio cholerae” (PLoS Genetics, 2017).

Where “and” joins values, the source holds several entries; their conditions need not be identical. Equal entries are not always repeated. Where two headings read alike, the source gives them in different places.

T1 sequence (Q9KM66 whole entry, looked up): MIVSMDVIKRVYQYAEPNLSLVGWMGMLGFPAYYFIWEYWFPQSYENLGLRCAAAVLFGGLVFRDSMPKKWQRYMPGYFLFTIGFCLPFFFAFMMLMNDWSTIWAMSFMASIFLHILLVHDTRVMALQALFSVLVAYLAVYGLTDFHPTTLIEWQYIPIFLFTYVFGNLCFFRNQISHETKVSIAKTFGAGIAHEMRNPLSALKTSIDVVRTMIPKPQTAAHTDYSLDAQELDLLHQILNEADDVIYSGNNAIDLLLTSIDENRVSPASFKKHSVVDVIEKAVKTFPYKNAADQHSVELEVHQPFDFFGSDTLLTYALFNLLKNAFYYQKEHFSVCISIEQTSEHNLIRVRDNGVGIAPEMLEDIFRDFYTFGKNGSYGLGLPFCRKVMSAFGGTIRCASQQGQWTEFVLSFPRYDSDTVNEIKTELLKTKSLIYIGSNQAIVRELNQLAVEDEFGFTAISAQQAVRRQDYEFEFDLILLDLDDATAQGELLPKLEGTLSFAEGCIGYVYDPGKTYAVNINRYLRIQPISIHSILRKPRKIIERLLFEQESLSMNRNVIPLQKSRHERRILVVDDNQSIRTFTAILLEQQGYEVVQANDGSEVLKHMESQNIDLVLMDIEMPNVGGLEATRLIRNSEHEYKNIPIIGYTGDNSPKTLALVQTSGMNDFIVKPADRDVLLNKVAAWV

As for `CCCCCCCCCC(=O)[C@@H](O)CC` [CAI], the “RLU, average per biological replicate (Totals)” value with qrr4 (setting [5]) was 2.55E+08 RLU and 2.82E+08 RLU and 3.63E+08 RLU.
Regarding `c1cc(N2CCCC2)ccc1CNc1nnn[nH]1` [#6], on CqsS [1] (S10 Fig), the CqsS agonist activity entry is on record as “loses all activity”. The RLU on CqsS [1] (agonist 0.762939 nM) was 2.15E+03 RLU and 2.08E+03 RLU and 4.10E+03 RLU; on CqsS [1] (agonist 12.207 nM) it was 2.13E+03 RLU and 2.35E+03 RLU and 4.10E+03 RLU; at CqsS [1] (agonist 48.8281 nM), 2.14E+03 RLU and 2.26E+03 RLU and 4.12E+03 RLU; on CqsS [1] (agonist 195.312 nM), 6.45E+03 RLU and 4.19E+03 RLU and 4.17E+03 RLU; at CqsS [1] (agonist 50000 nM), 6.42E+03 RLU and 4.10E+03 RLU and 6.49E+03 RLU.
By EC50 is commonly meant the concentration that produces a half-maximal response. Turning to `CCn1nnnc1NCc1ccc(C(C)C)cc1` [#5], the Light production at CqsS [1] (Agonist 0.0119209 nM) is 22342 RLU and 16526 RLU and 20189 RLU; at CqsS [1] (Agonist 0.0476837 nM) it was 18351 RLU and 14922 RLU and 16393 RLU; on CqsS [1] (Agonist 0.190735 nM), 24222 RLU and 32473 RLU and 30802 RLU; at CqsS [1] (Agonist 0.762939 nM), 43006 RLU and 46460 RLU and 51236 RLU; on CqsS [1] (Agonist 3.05176 nM), 215673 RLU and 187636 RLU and 197250 RLU; on CqsS [1] (Agonist 12.207 nM) it was 3692444 RLU and 3488605 RLU and 3831864 RLU. For the same compound, the Light production on CqsS [1] (Agonist 48.8281 nM) is 25448660 RLU and 29298250 RLU and 27925710 RLU; on CqsS [1] (Agonist 195.312 nM), 71515280 RLU and 80802780 RLU and 79358510 RLU; at CqsS [1] (Agonist 781.25 nM), 95077870 RLU and 111974800 RLU and 120784000 RLU; on CqsS [1] (Agonist 3125 nM), 107051300 RLU and 126535100 RLU and 129294500 RLU; at CqsS [1] (Agonist 12500 nM), 98996430 RLU and 113608500 RLU and 123733600 RLU; at CqsS [1] (Agonist 50000 nM), 91459320 RLU and 107555000 RLU and 106482900 RLU. The EC50 at CqsS [1] is 8 nM.
With `C[C@]12OC[C@H](O)[C@@]1(O)O[B-](O)(O)O2` [AI-2, (2S, 4S)-2-methyl-2,3,3,4-tetrahydroxytetrahydrofuran borate], the “Relative dimers, Average of 111816 reps” value in the test with CqsS [2] (HCD) is 0.8076 and 0.9392; with CqsS [2] (LCD), 1.105 and 0.8147. The “CqsS Dimers” value is 120.316 and 41.5193 and 39.7812 and 190.837 and 226.59 and 73.4627 and 88.226 and 103.067 in the test on CqsS [2] (HCD (OD600 = 2.0)); 53.516 and 13.7214 and 12.1436 and 82.1482 and 72.8907 and 15.3978 and 28.2649 and 41.282 with CqsS [2] (LCD (OD600 = 0.2)). Further, the “Relative dimers, Final experimental replicates” value was 0.8076 and 0.9392 and 0.977 and 1.14 and 0.4129 and 0.3956 in the test on CqsS [2] (HCD); 1.105 and 0.8147 and 1.157 and 1.5 and 0.8624 and 0.7633 in the test on CqsS [2] (LCD). In addition, the “Relative dimers (CqsS, normalized to WT Ave)” value is 0.7384 and 0.8768 and 0.8534 and 1.025 and 0.977 and 1.14 and 0.4129 and 0.3956 in the test with CqsS [2] (HCD); 1.171 and 1.039 and 0.5746 and 1.055 and 1.157 and 1.5 and 0.8624 and 0.7633 in the test with CqsS [2] (LCD). For the same compound, in the test with CqsS [2] (ΔcqsA ΔluxS mutant, LCD and HCD), the CqsS protein levels result is recorded as “increased CqsS protein levels to nearly that present in the WT”. Further, the Light production in test [3] (LuxS-CqsA- +AI-2 1 μM, OD600 0.0275) was 5854546 RLU; in test [3] (LuxS-CqsA- +AI-2 1 μM, OD600 0.0589), 5025467 RLU; in test [3] (LuxS-CqsA- +AI-2 1 μM, OD600 0.2147), 1280857 RLU; in test [3] (LuxS-CqsA- +AI-2 1 μM, OD600 0.4541) it was 1704470 RLU; in test [3] (LuxS-CqsA- +AI-2 1 μM, OD600 1.201), 1856786 RLU; in test [3] (LuxS-CqsA- +AI-2 1 μM, OD600 1.481), 34976370 RLU. For the same compound, the Light production in test [3] (LuxS-CqsA- +AI-2 1 μM, OD600 1.867) is on record as 25388320 RLU; in test [3] (LuxS-CqsA- +AI-2 1 μM, OD600 3.776), 12473520 RLU; in test [3] (LuxS-CqsA-, AI-2 1 μM, CAI-1 5 μM, OD600 0.005), 108432 RLU. The RLU in test [3] (agonist 0.0476837 nM) is 2.35E+03 RLU and 4.30E+03 RLU and 4.28E+03 RLU; in test [3] (agonist 0.762939 nM), 2.47E+03 RLU and 4.79E+03 RLU and 4.30E+03 RLU; in test [3] (agonist 3.05176 nM), 2.44E+03 RLU and 2.42E+03 RLU and 2.17E+03 RLU; in test [3] (agonist 12.207 nM) it was 2.38E+03 RLU and 4.73E+03 RLU and 4.30E+03 RLU; in test [3] (agonist 48.8281 nM) it was 9.41E+03 RLU and 7.14E+03 RLU and 8.89E+03 RLU; in test [3] (agonist 195.312 nM), 2.21E+04 RLU and 3.23E+04 RLU and 2.62E+04 RLU. Also, the RLU was 6.41E+04 RLU and 4.85E+04 RLU and 5.29E+04 RLU in test [3] (agonist 781.25 nM); 6.25E+04 RLU and 6.51E+04 RLU and 5.68E+04 RLU in test [3] (agonist 3125 nM); 7.03E+04 RLU and 7.29E+04 RLU and 6.20E+04 RLU in test [3] (agonist 12500 nM); 1.35E+07 RLU in test [4] (OD600 0.0532); 9.01E+07 RLU in test [4] (OD600 0.2928); 1.12E+09 RLU in test [4] (OD600 0.826). Further, the RLU is 3.16E+09 RLU in test [4] (OD600 1.094), 2.09E+10 RLU in test [4] (OD600 1.626) and 2.23E+10 RLU in test [4] (OD600 2.281). Besides, the “increase in light production” value in test [3] (saturating autoinducer, HCD, vs untreated ΔcqsA ΔluxS) is listed as 100 fold. The “increase in hapA expression” value in the test with hapA (LuxQ+ AI-2- strain (ΔcqsS ΔcqsR ΔvpsS ΔluxS)) turned out to be 27 fold; in the test on hapA (ΔcqsA ΔluxS strain, HCD), 4 fold. For the same compound, the “QS response when cqsS is under the luxPQ promoter” value in test [4] (S9B Fig) was “caused premature induction of QS”. In addition, in the test with qrr4 (LuxS-CqsA- strain + autoinducer, Average WT 115335416.84), the “RLU relative to Average WT” value was 29.34 and 29.68 and 31.98. Also, the “RLU, average per biological replicate (Totals)” value with qrr4 (setting [5]) was 3.38E+09 RLU and 3.42E+09 RLU and 3.69E+09 RLU. The “reduction of qrr4-luxCDABE expression” value in the test on qrr4 (saturating autoinducer, ΔcqsA ΔluxS mutant) is listed as 2 fold.
Take `CCC(C)NC(=O)Cc1ccc(-c2ccccc2)cc1` (centres unmarked) [#7]: the Light production at CqsS [1] (Agonist 0.0119209 nM) was 14566 RLU and 10667 RLU and 7878.8 RLU; on CqsS [1] (Agonist 0.0476837 nM), 16089 RLU and 13267 RLU and 10570 RLU; on CqsS [1] (Agonist 0.190735 nM), 18864 RLU and 15385 RLU and 12553 RLU; at CqsS [1] (Agonist 0.762939 nM) it was 24094 RLU and 21702 RLU and 17241 RLU; on CqsS [1] (Agonist 3.05176 nM), 32638 RLU and 25814 RLU and 24906 RLU; on CqsS [1] (Agonist 12.207 nM), 48047 RLU and 41582 RLU and 31818 RLU. Further, the Light production at CqsS [1] (Agonist 48.8281 nM) was 81242 RLU and 67619 RLU and 51844 RLU; at CqsS [1] (Agonist 195.312 nM), 183313 RLU and 159529 RLU and 160500 RLU; at CqsS [1] (Agonist 781.25 nM), 10770860 RLU and 8237516 RLU and 9173585 RLU; on CqsS [1] (Agonist 3125 nM) it was 90855490 RLU and 84011930 RLU and 82291170 RLU; at CqsS [1] (Agonist 12500 nM), 122744100 RLU and 104793600 RLU and 103467300 RLU; at CqsS [1] (Agonist 50000 nM) it was 104239700 RLU and 95731630 RLU and 92148540 RLU. Besides, the EC50 at CqsS [1] amounted to 403 nM.
Turning to `CCCn1nnnc1NCc1ccc(C(C)C)cc1` [#4], the Light production on CqsS [1] (Agonist 0.0119209 nM) is 12293 RLU and 13200 RLU and 7500 RLU; on CqsS [1] (Agonist 0.0476837 nM), 18202 RLU and 15106 RLU and 14409 RLU; at CqsS [1] (Agonist 0.190735 nM) it was 28023 RLU and 25417 RLU and 23860 RLU; on CqsS [1] (Agonist 0.762939 nM), 52174 RLU and 73300 RLU and 48409 RLU; on CqsS [1] (Agonist 3.05176 nM) it was 246211 RLU and 267975 RLU and 261469 RLU; at CqsS [1] (Agonist 12.207 nM), 3790123 RLU and 3428043 RLU and 3340791 RLU. The Light production at CqsS [1] (Agonist 48.8281 nM) is 19838010 RLU and 18010170 RLU and 17447160 RLU; at CqsS [1] (Agonist 195.312 nM) it was 61742000 RLU and 56850120 RLU and 54681960 RLU; on CqsS [1] (Agonist 781.25 nM), 104719700 RLU and 101045100 RLU and 95346500 RLU; at CqsS [1] (Agonist 3125 nM), 119868200 RLU and 118607300 RLU and 107846700 RLU; at CqsS [1] (Agonist 12500 nM), 122328400 RLU and 118368100 RLU and 108047500 RLU; on CqsS [1] (Agonist 50000 nM), 103497500 RLU and 101746000 RLU and 97356600 RLU. For the same compound, the midpoint of the response at CqsS [1], the EC50, lay at 7 nM.
